Tests used:
[1] = target: T1, beta-lactamase from Enterobacter cloacae (Enterobacter cloacae, UniProt P05364); experiment: Time dependent inhibition of beta-lactamase, with dialysis to test for return of activity; assay type: biochemical; conditions: 10 mL 0.1 units/mL beta-lactamase with 500 microM inhibitor, dialysed against 1 L 0.1 M sodium phosphate buffer (pH 7.0), one exchange
T1 construct: purchased Sigma-Aldrich

[2] = target: T1, beta-lactamase from Enterobacter cloacae; experiment: Assay (I) for beta-lactamase activity, Cefesone hydrolysis (product inhibition); assay type: biochemical; conditions: reaction continued for two hours; theoretical maximal absorbance approximately 1.6; said to be consistent with product inhibition
Procedure: A chromogenic cephalosporin, Cefesone, is synthesized and isolated, for example, as described by Sutton et al. International Application WO 2009/049086 and used to monitor p-lactamase activity. A typical assay monitors the hydrolysis of Cefesone via the formation of a species which absorbs at 486 nm (molar absorptivity constant 16,000). Absorption is monitored as a function of time in 0.1 M, pH 7.0 sodium phosphate, 0.2 mM Cefesone and 4 volume percent DMSO cosolvent at 30° C. using a Beckman DU-40 spectrophotometer having a circulating water bath attached to the cuvette holder. The assay is initiated by addition and mixing of an appropriate amount of beta-lactamase.
The beta-lactamase assay using enzyme fro Enterobacter cloacae (Sigma-Aldrich, St. Louis, Mo.) was carried out as in Example 2 (assay I) above with compound 2. After the initial rate was determined the reaction was allowed to continue for two hours. Theoretical maximal absorbance at 486 nm is approximately 1.6 while the observed final absorbance was consistently 0.26.

T1 sequence (P05364 21-381): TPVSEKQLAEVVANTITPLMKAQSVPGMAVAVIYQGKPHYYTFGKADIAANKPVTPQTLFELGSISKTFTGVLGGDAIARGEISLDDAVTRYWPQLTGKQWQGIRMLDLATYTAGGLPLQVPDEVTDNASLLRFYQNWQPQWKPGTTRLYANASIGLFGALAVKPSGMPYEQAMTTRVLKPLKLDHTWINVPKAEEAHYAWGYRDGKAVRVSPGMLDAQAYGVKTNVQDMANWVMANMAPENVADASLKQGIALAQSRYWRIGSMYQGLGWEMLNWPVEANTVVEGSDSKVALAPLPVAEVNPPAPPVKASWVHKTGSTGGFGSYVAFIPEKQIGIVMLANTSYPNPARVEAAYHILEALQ

Row | Compound | return of beta-lactamase activity after dialysis [1] | observed final absorbance at 486 nm [2]
1 | O=C(Cc1ccccc1)NC1C(=O)N2C(C(=O)O)=C(/C=C/c3ccc(CBr)cc3)CSC12 (stereo not drawn) [compound 4, 3-(1-bromomethyl-4-vinylbenzene)-7-(2-phenylacetamido)-3-Cephem-4-carboxylic acid] | no return of activity | 
2 | O=C(Cc1ccccc1)NC1C(=O)N2C(C(=O)O)=C(/C=C/C3CC3)CSC12 (stereo not drawn) [compound 2, 3-vinylcyclopropane-7-(2-phenylacetamido)-3-Cephem-4-carboxylic acid] | no return of activity | 0.26
